Measurements taken from US11306078B2, “Piperidine CXCR7 receptor modulators” (IDORSIA PHARMACEUTICALS LTD., priority 2016, dated 2022).
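Also: compounds preincubated 15 min before CXCL12 addition, then 22 h at 37 °C, FRET emission ratio read with CCF4-AM substrate after 2 h.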

Each molecule was assayed against human chemokine receptor CXCR7 (Homo sapiens (Human), UniProt P25106) (assay: Tango CXCR7-bla U2OS beta-arrestin recruitment assay (beta-lactamase reporter, FRET), antagonism of CXCL12/SDF1-α). Conditions: antagonistic effect on CXCR7; Tango CXCR7-bla U2OS cells, CXCL12/SDF1-α at its EC80.
Sequence of human chemokine receptor CXCR7 (P25106 whole entry): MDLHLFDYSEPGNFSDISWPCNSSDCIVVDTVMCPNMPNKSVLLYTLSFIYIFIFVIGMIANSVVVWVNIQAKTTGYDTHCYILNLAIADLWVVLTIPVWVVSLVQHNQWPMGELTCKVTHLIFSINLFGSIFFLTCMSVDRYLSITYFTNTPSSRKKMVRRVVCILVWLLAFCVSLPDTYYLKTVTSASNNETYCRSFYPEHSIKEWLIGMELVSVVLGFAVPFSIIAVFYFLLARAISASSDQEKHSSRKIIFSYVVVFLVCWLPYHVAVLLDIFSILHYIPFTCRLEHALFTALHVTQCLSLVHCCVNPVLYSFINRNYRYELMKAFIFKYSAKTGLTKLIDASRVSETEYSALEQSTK
Format: cell-based
`Cn1cc(C(C)(C)NC(=O)[C@H]2CN(CC3CC3)CC[C@@H]2NC(=O)c2cc(-c3ccc(F)cc3F)on2)cn1` [Example 4.043] showed an IC50 of 158 nM.
`Cc1nc(C(C)(C)NC(=O)[C@H]2CN(CC3CC3)CC[C@@H]2NC(=O)c2cc(-c3ccc(F)cc3F)on2)no1` [Example 4.044] was tested, and the IC50 was 75 nM.
For `O=C(N[C@H]1CCN(CC2CC2)C[C@@H]1C(=O)NC1(C2CC2)CC1)c1cc(-c2ccc(F)cc2F)on1` [Example 4.045], the IC50 was 164 nM.
In the case of `CC(NC(=O)[C@H]1CN(CC2CC2)CC[C@@H]1NC(=O)c1cc(-c2ccc(F)cc2F)on1)C1CCCO1` (some centres unmarked) [Example 4.046], the IC50 is reported as 290 nM.
Molecule `CC(NC(=O)[C@H]1CN(CC2CC2)CC[C@@H]1NC(=O)c1cc(-c2ccc(F)cc2F)on1)c1nc[nH]n1` (some centres unmarked) [Example 4.047] has an IC50 of 318 nM.
`C#CC(C)NC(=O)[C@H]1CN(CC2CC2)CC[C@@H]1NC(=O)c1cc(-c2ccc(F)cc2F)on1` (some centres unmarked) [Example 4.048] was tested, and the IC50 was 247 nM.
`CC(NC(=O)[C@H]1CN(CC2CC2)CC[C@@H]1NC(=O)c1cc(-c2ccc(F)cc2F)on1)c1ccon1` (some centres unmarked) [Example 4.049] gave an IC50 of 148 nM.
`N#CCN1CC[C@H](NC(=O)c2cc(-c3ccc(F)cc3F)on2)[C@@H](C(=O)NC2(c3ncccn3)CC2)C1` [Example 4.051] gave an IC50 of 356 nM.
`O=C(N[C@H]1CCN(CC2CC2)C[C@@H]1C(=O)NC1(c2ccccc2)CC1)c1cc(-c2ccc(F)cc2F)on1` [Example 4.053] showed an IC50 of 1 nM.
Work on `O=C(N[C@H]1CCN(CC2CC2)C[C@@H]1C(=O)NC1(c2ncccc2F)CC1)c1cc(-c2ccc(F)cc2F)on1` [Example 4.054] yielded an IC50 of 1 nM.
`O=C(N[C@H]1CCN(CC2CC2)C[C@@H]1C(=O)NC1(c2ccncn2)CC1)c1cc(-c2ccc(F)cc2F)on1` [Example 4.055] was tested, and the IC50 was 16 nM.
For `CCOC(=O)C1(NC(=O)[C@H]2CN(CC3CC3)CC[C@@H]2NC(=O)c2cc(-c3ccc(F)cc3F)on2)CC1` [Example 4.056], the IC50 was 64 nM.
`O=C(N[C@H]1CCN(CC2CC2)C[C@@H]1C(=O)NC1(c2ccccc2)CCC1)c1cc(-c2ccc(F)cc2F)on1` [Example 4.057] was tested, and the IC50 was 13 nM.
`O=C(N[C@H]1CCN(CC2CC2)C[C@@H]1C(=O)N(CCF)Cc1ccccc1)c1cc(-c2ccc(F)cc2F)on1` [Example 4.058] showed an IC50 of 90 nM.
In the case of `COc1cccc(C2(NC(=O)[C@H]3CN(CC4CC4)CC[C@@H]3NC(=O)c3cc(-c4ccc(F)cc4F)on3)CC2)c1` [Example 4.059], the IC50 is reported as 61 nM.
`O=C(N[C@H]1CCN(CC2CC2)C[C@@H]1C(=O)NC1(c2ccccc2F)CC1)c1cc(-c2ccc(F)cc2F)on1` [Example 4.061] was tested, and the IC50 was 1 nM.
With `O=C(N[C@H]1CCN(CC2CC2)C[C@@H]1C(=O)NC1(c2ccc(F)cc2)CC1)c1cc(-c2ccc(F)cc2F)on1` [Example 4.062] the IC50 was 141 nM.
Molecule `O=C(N[C@H]1CCN(CC2CC2)C[C@@H]1C(=O)NC1(c2cccc(F)c2)CC1)c1cc(-c2ccc(F)cc2F)on1` [Example 4.063] has an IC50 of 142 nM.
Work on `Cc1cccc(CNC(=O)[C@H]2CN(CC3CC3)CC[C@@H]2NC(=O)c2cc(-c3ccc(F)cc3F)on2)n1` [Example 4.064] yielded an IC50 of 753 nM.
Molecule `O=C(N[C@H]1CCN(CC2CC2)C[C@@H]1C(=O)NCCc1ccccc1Cl)c1cc(-c2ccc(F)cc2F)on1` [Example 4.065] has an IC50 of 14 nM.
Work on `CCN(CC)C(=O)[C@H]1CN(CC2CC2)CC[C@@H]1NC(=O)c1cc(-c2ccc(F)cc2F)on1` [Example 4.066] yielded an IC50 of 320 nM.
With `O=C(N[C@H]1CCN(CC2CC2)C[C@@H]1C(=O)N1CC[C@@H]1c1ccccc1)c1cc(-c2ccc(F)cc2F)on1` [Example 4.067a] the IC50 was 20 nM.
`O=C(N[C@@H]1CCN(CC2CC2)C[C@H]1C(=O)N1CC[C@@H]1c1ccccc1)c1cc(-c2ccc(F)cc2F)on1` [Example 4.067b] showed an IC50 of 2 nM.
Molecule `O=C(N[C@H]1CCN(CC2CC2)C[C@@H]1C(=O)NC1(c2cccc(Cl)c2)CC1)c1cc(-c2ccc(F)cc2F)on1` [Example 4.068] has an IC50 of 1 nM.
`CON(C)C(=O)[C@@H]1CN(CC2CC2)CC[C@H]1NC(=O)c1cc(-c2ccc(F)cc2F)on1` [Example 4.069] gave an IC50 of 153 nM.
In the case of `CCN(CC)C(=O)[C@@H]1CN(CC2CC2)CC[C@H]1NC(=O)c1cc(-c2ccc(F)cc2F)on1` [Example 4.071], the IC50 is reported as 212 nM.
